# Data published in patent publication US20250382588A1, “CHIMERIC AAV AND USES THEREOF” (priority 2023, published 2025).
# Assays:
# rM3Ds = target: T1, rM3Ds (Rattus norvegicus, UniProt P08483, A177S/A238G/A489L/DEL261-437/DEL441-478/E258S/I253V/I483M/INS256[…]/K178L/K182A/K255R/K484R/K486H/L173F/L482A/M480V/R171S/R176Q/R179M/S481M/T174R/T181R/T257A/Y148C); assay: Electrophysiological recording in caudate/putamen of MPP+ lesioned macaques after CNO or DCZ; assay type: in vivo
# T1 sequence (P08483 with tags, fused parts or gaps Y148C/R171S/L173F/T174R/R176Q/A177S/K178L/R179M/T181R/K182A/A238G/I253V/K255R/INS256[…]/T257A/E258S/DEL261-437/DEL441-478/M480V/S481M/L482A/I483M/K484R/K486H/A489L): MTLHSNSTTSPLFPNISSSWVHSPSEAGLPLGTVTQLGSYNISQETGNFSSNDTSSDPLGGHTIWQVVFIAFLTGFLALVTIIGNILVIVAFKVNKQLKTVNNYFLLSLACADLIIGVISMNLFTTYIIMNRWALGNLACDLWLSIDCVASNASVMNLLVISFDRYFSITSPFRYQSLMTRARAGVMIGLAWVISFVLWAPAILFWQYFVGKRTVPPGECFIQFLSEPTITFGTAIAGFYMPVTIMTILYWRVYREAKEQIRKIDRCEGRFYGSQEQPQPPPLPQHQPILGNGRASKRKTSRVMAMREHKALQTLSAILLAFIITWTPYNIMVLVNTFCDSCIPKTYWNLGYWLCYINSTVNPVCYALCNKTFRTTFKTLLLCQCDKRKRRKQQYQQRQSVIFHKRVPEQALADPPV
# Method: Intriguingly, many of the symptoms were greatly reversed after systemic deschloroclozapine (DCZ) administration. DCZ is a potent brain-penetrable agonist for rM3Ds with reduced off-targeting binding compared to CNO, and was administered to activate the DREADD system in the macaque brain.
# Electrophysiological recording was performed through a recording chamber while the monkey was anesthetized. Neural responses were recorded by a 16-channel linear probe (Plexon Inc, Uprobe) driven by a mechanical microdrive (Alpha Omega, FlexMT). Signals were passed through a head stage (Plexon Inc, HST/16V-G20 LN) and then split and filtered between 300 Hz and 5 kHz to identify spiking activity with an amplifier system (Plexon Inc, OmniPlex). Detected spikes were then sorted by commercially available software (Plexon Inc, Offline Sorter) for further analysis. To quantify the effect of CNO/DCZ injection, neural activity was recorded for 60 minutes following CNO/DCZ injection. The response time-course for each channel was obtained by counting the spikes within every 10-minute window and then normalizing to the maximal.
# To determine the effect of CNO/DCZ injection on the direction of signal change, we performed Pearson correlation between neural responses and time using the ‘corr’ function in Matlab, which generates the correlation coefficient ‘r’ and significant level ‘p’. A neuron was considered to have “Increased” activity when r>0 and p<[…]; and considered to have “Decreased” activity when r<0 and p<0.05. Otherwise, neurons were considered to be “Unchanged” in their neural activities. The responses of all increased neurons were then averaged after being normalized by the maximal response (Crowe et al., 2014; Dai and Wang, 2018; Hirokawa et al., 2019) following CNO/DCZ injection, and then plotted as a function of time to generate the normalized population response.
# c-Fos+ cells in the SNr = assay: c-Fos staining in the SNr after CNO; assay type: in vivo, mice; settings: AAV8R12-G88P3-HA-hM3Dq
# [1] = Locomotion test in naive macaques after CNO; assay type: in vivo
# Method: The locomotion tests for monkeys were conducted in a custom-made observation cage (100 cm×100 cm×100 cm). The top and front of the cage were made of toughened glass in order to gain a clear view for behavioral recording. Monkeys were habituated to the observation cage by placing them inside for 30 minutes on three separate days.
# For monkeys injected with AAV8R12-G88P3-HA-hM3Dq, CNO was intracranially infused into the dorsomedial caudate through the recording chamber. To infuse while the animal was awake, the monkey was trained to sit in a primate chair specially designed with its head fixed to the primate chair by a mask made of thermoplastic materials. Injections were conducted through a 33-Gauge needle connected to a 250 μL syringe via a polyethylene pipe (Hamilton, Neuros). […] The needle was held for 5 minutes for drug diffusion before retraction. […] Videos capturing the subjects' behavior were recorded for at least 90 minutes. Animal behaviors from 30-90 minutes after saline/CNO infusion were further analyzed and quantified.
# For rotation analysis, only movements that occurred lower than 30 cm on the z-axis were counted. To determine the direction of the rotation, we first computed the center for the rotation data in the x-y plane as (x0, y0) by averaging all data points, and then we computed the angle relative to (x0, y0) for each time point by the following formula:
# where θi represents the rotating angle at time i, and (xi, yi) represents the x-y coordinate at time i. We then calculated the change of rotating angle as Δθi=θi−θi-1. For right nigral injections, when Δθ<0, the direction of the rotation was anticlockwise and was labeled as a contraversive rotation. When Δθ>0, the direction of the rotation was clockwise and was labeled as an ipsiversive rotation. The raw data were analyzed and plotted through a custom R package. Code is available on Github (github.com/chenyef/PD_ana/blob/main/Behavior_ana.txt).
# [2] = caudate/putamen, CNO 36 cells, DCZ 31 cells
compound,measurement,setting,value
"C[N+]1([O-])CCN(C2=Nc3cc(Cl)ccc3Nc3ccccc32)CC1 [CNO, clozapine N-oxide]","neuronal activity in MPP+ lesioned macaques, in words",rM3Ds; anesthetized animals,induced an increase in neuronal activity
same,cells activated (FIG. 15G),rM3Ds; [2],52.8%
same,cells inactivated (FIG. 15G),rM3Ds; [2],13.9%
same,cells unchanged (FIG. 15G),rM3Ds; [2],33.3%
same,c-Fos+ cells in the right SNr,c-Fos+ cells in the SNr; CNO intraperitoneal,significant increase
same,number of nigral c-Fos+ cells,c-Fos+ cells in the SNr; intracranial CNO infusions,No significant changes
same,immobile time (FIG. 11E),"[1]; naive macaques, n=3",149.8±22.65
same,percentage of contraversive and ipsiversive rotation (FIG. 11C),"[1]; naive macaques, n=3",0.8384±0.4152
same,speed of contraversive rotations (FIG. 11G),"[1]; naive macaques, n=3",39.63±7.092
same,speed of ipsiversive rotations (FIG. 11H),"[1]; naive macaques, n=3",42.79±4.705
same,time spending in the higher portion of the observing cages (FIG. 11D),"[1]; naive macaques, n=3",60.43±4.542
same,total distance (FIG. 11F),"[1]; naive macaques, n=3",59.48±18.65
same,"behavioral changes in naïve monkeys, in words",[1]; no viral injections,did not induce significant behavioral changes
